Laboratory results as given in article PMC10397409, “The action of physiological and synthetic steroids on the calcium channel CatSper in human sperm” (Frontiers in Cell and Developmental Biology, 2023).
Like-named read-outs stand apart in the source and are kept apart here.

Experiments:
[1] = biological target: T1, CatSper (Homo sapiens, UniProt Q7RTX7+Q86XQ3+Q8NEC5+Q96P56); assay: Steroid-induced increase in [Ca2+]i in human sperm (Fluo-4 HTS assay, screen 1 activators); assay type: cell-based; details: for Emax: read-out: Max amplitude (%) (± SD)
T1 construct: Motile spermatozoa were selected by a ‘swim-up’ procedure; endogenous in cells; host or cells: motile human spermatozoa (swim-up) from healthy donors

[2] = biological target: T1, CatSper; assay: Inhibition of P4-induced Ca2+ influx in human sperm (screen 2 inhibitors); assay type: cell-based; details: for Max P4 inhibition (%) (± SD): 3 independent experiments
[3] = EC50 (±SD), increase in [Ca2+]i, dose-response 90 µM to 0.3 nM
[4] = Mean EC50 µM (±SD), pooled from 3 independent experiments
[5] = maximal amplitude of steroid-induced [Ca2+]i increase, relative to P4, 3 independent experiments
[6] = IC50 (±SD), inhibition of P4-induced Ca2+ response, dose-response 90 µM to 0.3 nM
[7] = Mean IC50 (P4) µM (±SD), P4-induced response, pooled from 3 independent experiments

`CC(=O)[C@H]1CC[C@H]2[C@@H]3CC=C4C[C@@H](O)CC[C@]4(C)[C@H]3CC[C@]12C` [Pregnenolone] was tested, and the “EC02 compared with reported maximum concentration in blood serum” value [1] was “EC02 below the reported maximum concentration found in blood serum”, the “effective concentrations as low as (dose-dependent increase in [Ca2+]i)” value [1] was 10 nM and the EC50 [1, 3] was 0.073 µM. The EC50 [1, 4] was 0.07 µM, the Emax [1, 5] was 73% and the “Max P4 inhibition (%) (± SD)” value [2] was 82 (±5) %. It also gave an IC50 [2, 6] of 0.199 µM.

`CC(=O)[C@H]1CC[C@H]2[C@@H]3CCC4=CC(=O)CC[C@]4(C)[C@H]3CC[C@]12C` [Progesterone] gave an EC50 ([1]; increase in [Ca2+]i in human sperm, read-out: EC50) of 0.0025 µM, an EC50 ([1]; increase in [Ca2+]i, dose-response 90 µM to 0.3 nM, read-out: EC50 (±SD)) of 0.003 µM and an Emax [1, 5] of 100%. The EC50 ([1]; pooled from 3 independent experiments, read-out: Mean EC50 µM (±SD)) was 0.002 µM, the “Max P4 inhibition (%) (± SD)” value [2] was 79 (±7) % and the IC50 ([2]; inhibition of P4-induced Ca2+ response, dose-response 90 µM to 0.3 nM, read-out: IC50 (±SD)) was 0.006 µM.

For `C[C@]12CC[C@H](O)C[C@@H]1CC[C@@H]1[C@@H]2CC[C@]2(C)C(=O)CC[C@@H]12` [Epiandrosterone], the “EC02 compared with reported maximum concentration in blood serum” value [1] was “EC02 below the reported maximum concentration found in blood serum”, the EC50 [1, 3] was 0.209 µM and the EC50 [1, 4] was 0.207 µM. The Emax [1] was 78%, the “Max P4 inhibition (%) (± SD)” value [2] was 72 (±2) % and the IC50 [2, 6] was 0.628 µM. The IC50 [2, 7] was 0.625 µM.

For `C[C@]12Cc3c[nH]nc3C[C@@H]1CC[C@@H]1[C@@H]2CC[C@@]2(C)[C@H]1CC[C@]2(C)O` [Stanozolol], the EC50 [1, 3] was 0.285 µM, the EC50 [1, 4] was 0.081 µM and the “increase in [Ca2+]i” value ([1]; at low concentrations in the nanomolar range) was 30%. For the same molecule, the Emax [1] was 79%, the “Max P4 inhibition (%) (± SD)” value [2] was 96 (±2) % and the IC50 [2, 6] was 0.194 µM. For the same molecule, the IC50 [2, 7] was 0.19 µM.
